Values joined by “and” are separate entries in the source; they are usually repeats but may differ in a detail not shown here. Identical values can stand only once. Bounds are passed on as bounds.

Experimental findings from article PMC10794137, “A new antibiotic traps lipopolysaccharide in its intermembrane transporter” (Nature, 2024) are described below.

In assay [1] the test system is Acinetobacter baylyi LptF(E249K). The class given is cell-based. As to conditions: A. baylyi LptF(E249K). The method, then:
(§1) Culture, genetic manipulation and MIC measurements of A. baylyi ADP1 were conducted according to previously reported procedures[46],[51]. Point mutants were constructed in a two-step procedure following ref. [52] with the introduction and excision of the integration cassette at codon 66 of pepA, wherein the excising fragment of otherwise wild-type chromosomal DNA sequence from codon 406 of pepA to codon 193 of lptG bore the desired mutation and the resulting clones were screened by amplicon sequencing from codon 81 of HolC to codon 501 of GpmI, whereas lpxM deletion was achieved following the same procedure except that the integration cassette insertion and excision removed codons 79–279 of lpxM to avoid interference with neighbouring and overlapping genes that a larger deletion may risk and replaced codon 78 with an ochre stop codon to prevent a readthrough resulting in an aberrant fusion, with the excising fragment sequence spanning from codon 211 of sppA to codon 497 of ComA and verified by amplicon sequencing from codon 94 of MhpC to codon 327 of ComA as well as by absence of a PCR product corresponding to a region spanning codons 79 to 279 of lpxM to check for duplications. A deletion of the lon protease was made in the same manner to produce the stain used for expression and purification of LptB2FG to mimic the BL21 strain of E. coli used in the rest of purifications, for which the region encompassing 72 base pairs (bp) upstream of the lon start codon and 1 bp downstream of the lon stop codon was excised after being replaced with the same integration cassette, yielding a markerless deletion, with the excising fragment sequence spanning from codon 491 of ArnT to codon 40 of 45_DOPA_Dioxygenase and verified by amplicon sequencing spanning from codon 322 of ArnT to codon 221 of 45_DOPA_Dioxygenase as well as by absence of a PCR product corresponding to a region spanning from codons 328 to 768 of lon to check for duplications. Following amplicon confirmation, three validated isolates of each constructed mutant were tested for susceptibility to a panel of antibiotics with […] known mechanisms of action as a further validation step to ensure congruence of phenotypes across replicates, which was confirmed in all cases and one of the validated replicates was later used for MIC measurements reported here.
(§2) MIC determinations were performed by broth microdilution in line with CLSI guidelines (CLSI M07-A11 2018). Bacterial inocula were prepared by diluting overnight liquid cultures in LB. Antibacterial panels containing antibacterial solutions were inoculated with an appropriate volume of inoculum to give a final inoculum of about 5 × 10^5 c.f.u. ml^−1 and desired test concentrations of antibacterial agents in standard 96-well plates with 0.1 ml of culture per well. The test plates were incubated for 20–24 h and optical density (OD600) was recorded using a plate reader. MIC values corresponded to the lowest compound concentration inhibiting bacterial growth beyond which OD ceased to decrease.

The subject of assay [2] is Acinetobacter baylyi LptF(E58V). The class given is cell-based. The following applies: A. baylyi LptF(E58V). The method, then:
as §1, §2

In assay [3] the test system is Acinetobacter baylyi LptF(I317N). The class given is cell-based. The following applies: A. baylyi LptF(I317N). The method, then:
as §1, §2

The test system of assay [4] is Acinetobacter baylyi LptF(R320T). Format: cell-based. As to conditions: A. baylyi LptF(R320T). The method, then: as §1, §2
Assay [5] deals with Acinetobacter baylyi LptF(V314L 315del). The class given is cell-based. The following applies: A. baylyi LptF(V314L 315del). The method, then: as §1, §2
Assay [6] concerns Acinetobacter baylyi LptF(W271R). The class given is cell-based. The following applies: A. baylyi LptF(W271R). The method, then:
as §1, §2

The test system of assay [7] is Acinetobacter baylyi LptG(L36Q). The class given is cell-based. As to conditions: A. baylyi LptG(L36Q). The method, then:
as §1, §2

For assay [8], the system named is Acinetobacter baylyi ΔlpxM. The experiment in a line: MIC by broth microdilution, A. baylyi ΔlpxM. The class given is cell-based. The method, then:
as §1, §2

In assay [9] the test system is Acinetobacter baylyi ΔLpxC. Format: cell-based. As to conditions: A. baylyi ΔLpxC (lacking LPS). The method, then: as §1, §2
Assay [10] deals with Acinetobacter LptB2FGC. Briefly: LPS release assay from proteoliposomes to LptA, wild-type LptB2FGC. Format: biochemical, Acinetobacter baylyi. As to conditions: for Inhibition of LPS release (transport) to LptA: wild-type LptB2FGC, E. coli LPS, 60 min. The method, then:
(§3) Proteoliposomes were prepared as described previously. Aqueous E. coli polar lipid extract (Avanti Polar Lipids) (30 mg ml^−1) and aqueous LPS from E. coli EH100 (Ra mutant; Sigma) (2 mg ml^−1) were sonicated briefly for homogenization. For experiments testing the effect of LPS structure, we used LPS isolated from either GKM374 (BL21DE3 eptA::catR arnA::kanR eptC::gentR) or TXM418 (BL21DE3 eptA::catR arnA::FRT eptB::gentR lpxM::kanR) as described previously. A mixture of 20 mM Tris-HCl (pH 8.0), 150 mM NaCl, 7.5 mg ml^−1 of E. coli polar lipids, 0.5 mg ml^−1 of LPS and 0.25% DDM was prepared and kept on ice for 10 min. Purified LptB2FGC or LptB2FG was added to a final concentration of 0.86 μM and the mixture was left on ice for 20 min. The mixture was diluted 100-fold with cold 20 mM Tris-HCl (pH 8.0) and 150 mM NaCl and kept on ice for 20 min. The proteoliposomes were pelleted (300,000g, 2 h, 4 °C), resuspended in 20 mM Tris-HCl (pH 8.0) and 150 mM NaCl, diluted 100× and centrifuged (300,000g, 2 h, 4 °C). The pellets were resuspended in a mixture of 20 mM Tris-HCl (pH 8.0), 150 mM NaCl and 10% glycerol (250 μl per 100 μl of the original predilution solution), homogenized by sonication, flash frozen and stored at −80 °C until use.
The amounts of release of LPS from proteoliposomes to LptA were measured as previously described. Assays used 60% proteoliposomes (by volume) in a solution containing 50 mM Tris-HCl (pH 8.0), 500 mM NaCl, 10% glycerol and 2 µM LptA^I36pBPA. Reaction mixtures were incubated with drug for 10 min at room temperature, as applicable. Reactions were then initiated by the addition of ATP and MgCl2 (final concentrations of 5 mM and 2 mM, respectively) and proceeded at 30 °C. Aliquots (25 µl) were removed from the reaction mixtures and irradiated with ultraviolet (UV) light (365 nm) on ice for 10 min using a B-100AP lamp (Fisher Scientific). Following UV irradiation, 25 µl of 2× SDS–PAGE sample loading buffer was added, samples were boiled for 10 min and proteins were separated using Tris-HCl 4–20% polyacrylamide gradient gels with Tris-glycine running buffer. Immunoblotting was conducted as described above.

Assay [11] deals with LptB2F^I317NGC. The experiment in a line: LPS release assay, LptB2F(I317N)GC. Format: biochemical, Acinetobacter baylyi. The following applies: LptF I317N complex, E. coli LPS. The method, then:
as §3
The amounts of release of LPS from proteoliposomes to LptA were measured as previously described. […]

In the case of `CN1C(=O)[C@H](CCCCN)NC(=O)[C@H](CCCN)NCc2cccnc2Sc2cccc(-c3ccc(C(=O)O)cc3)c2CNC(=O)[C@@H]1Cc1c[nH]c2ccccc12` [Compound 2, Zosurabalpin], the MIC in assay [1] is 17 µM and 13 µg/mL; in assay [2], 3.4 µM and 2.7 µg/mL; in assay [3], 9 µM and 7 µg/mL; in [4], 1.4 µM and 1.1 µg/mL; in assay [5] it was 3 µM and 2 µg/mL; in [6], 0.08 µg/mL and 0.1 µM. Further, the MIC in assay [7] is 0.44 µM and 0.35 µg/mL.
Take `CN1C(=O)[C@H](CCCCN)NC(=O)[C@H](CCCN)NCc2cccnc2Sc2c(Cl)ccc(-c3ccc(N)nc3)c2CNC(=O)[C@@H]1Cc1c[nH]c2ccccc12` [Compound 1]: in assay [8] (A. baylyi lpxM deletion strain vs wild type), the “Fold less susceptible than wild type” value was determined as 30 fold. The MIC in [8] (A. baylyi ΔlpxM) was 0.3 µM and 0.2 µg/mL; in [9], > 50 µM and > 40 µg/mL. In [10] (LPS from E. coli LpxM deletion strain vs matching wild-type LPS), the “Fold higher compound concentration at which transport of ΔLpxM LPS was possible vs that inhibiting wild-type LPS transport” value was 20 fold. Further, the “Inhibition of LPS release (transport) to LptA” value in assay [10] was “blocked LPS release”. In addition, the “Inhibition of LPS release to LptA” value in [11] is on record as “did not block LPS release”.
In the case of `CN1C(=O)[C@H](CCCCN)NC(=O)[C@H](CCCN)NCc2cccnc2Sc2c(Cl)ccc(Cl)c2CNC(=O)[C@@H]1Cc1c[nH]c2ccccc12` [Compound 3], the MIC is greater than 50 µM in assay [1]; 14 µM and 10 µg/mL in assay [2]; greater than 50 µM in assay [3]; 0.24 µM and 0.18 µg/mL in assay [4]; 0.24 µM and 0.18 µg/mL in assay [5]; 0.07 µg/mL and 0.1 µM in [6]. Moreover, the MIC in assay [7] was 0.44 µM and 0.33 µg/mL. For the same molecule, the “Fold less effective than 1 and 2 in LPS release from LptB2FGC to LptA” value in assay [10] (LptB2FGC with LptC TM helix) stood at 100 fold. Also, the “Inhibition of LPS release (transport) to LptA” value in [10] is listed as “not inhibited”.
